Source: US8952024B2, “Herbicidal pyrimidone derivatives” (E I du Pont de Nemours and Company, priority 2009, dated 2015)

Tests used:
Type in all cases: in vivo
[1] = system: barnyardgrass (Echinochloa crus-galli); assay: Test A pre-/postemergence plant response
Excerpt: (§1) Seeds of barnyardgrass (Echinochloa crus-galli), large crabgrass (Digitaria sanguinalis), giant foxtail (Setaria faberii), morningglory (Ipomoea spp.), pigweed (Amaranthus retroflexus), velvetleaf (Abutilon theophrasti), wheat (Triticum aestivum) and corn (Zea mays) were planted into a blend of loam soil and sand and treated preemergence with a directed soil spray using test chemicals formulated in a non-phytotoxic solvent mixture which included a surfactant. At the same time these species were also treated with postemergence applications of test compounds formulated in the same manner.
(§2) Plants ranged in height from two to ten cm and were in the one- to two-leaf stage for the postemergence treatment. Treated plants and untreated controls were maintained in a greenhouse for approximately ten days, after which time all treated plants were compared to untreated controls and visually evaluated for injury. Plant response ratings, summarized in Table A, are based on a 0 to 100 scale where 0 is no effect and 100 is complete control. A dash (-) response means no test result.

[2] = system: corn (Zea mays); assay: Test A pre-/postemergence plant response
Excerpt: as §1, §2

[3] = system: giant foxtail (Setaria faberii); assay: Test A pre-/postemergence plant response
Excerpt: as §1, §2

[4] = system: large crabgrass (Digitaria sanguinalis); assay: Test A pre-/postemergence plant response
Excerpt: as §1, §2

[5] = system: morningglory (Ipomoea spp.); assay: Test A pre-/postemergence plant response
Excerpt: as §1, §2

[6] = system: pigweed (Amaranthus retroflexus); assay: Test A pre-/postemergence plant response
Excerpt: as §1, §2

[7] = system: velvetleaf (Abutilon theophrasti); assay: Test A pre-/postemergence plant response
Excerpt: as §1, §2

[8] = system: wheat (Triticum aestivum); assay: Test A pre-/postemergence plant response
Excerpt: as §1, §2

[9] = system: barnyardgrass (Echinochloa crus-galli); assay: Test B flooded paddy test; details: for Plant response rating, Flood, Barnyardgrass: 250 g ai/ha, flooded paddy test, visual rating on 0 to 100 scale (0 no effect, 100 complete control) after 13 to 15 days; for Plant response rating, Barnyardgrass: Flood (flooded paddy test), 13 to 15 days; for Barnyardgrass plant response rating: Flood, 31 g ai/ha, scale 0 to 100 (0 no effect, 100 complete control)
Procedure, shortened: (§3)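 Visual scores run from 0 (no effect) to 100 (complete control), assigned by comparison with controls 13 to 15 days after treatment. Test compounds went straight into water standing 3 cm above the soil, around plants at the 2-leaf stage kept in a greenhouse.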

[10] = system: ducksalad (Heteranthera limosa); assay: Test B flooded paddy test; details: for Plant response rating, Flood, Ducksalad: 250 g ai/ha, flooded paddy test, visual rating on 0 to 100 scale (0 no effect, 100 complete control) after 13 to 15 days; for Plant response rating, Ducksalad: Flood (flooded paddy test), 13 to 15 days; for Ducksalad plant response rating: Flood, 31 g ai/ha, scale 0 to 100 (0 no effect, 100 complete control)
Procedure, shortened: as §3

[11] = system: rice (Oryza sativa); assay: Test B flooded paddy test; details: for Plant response rating, Flood, Rice: 250 g ai/ha, flooded paddy test, visual rating on 0 to 100 scale (0 no effect, 100 complete control) after 13 to 15 days; for Plant response rating, Rice: Flood (flooded paddy test), 13 to 15 days; for Rice plant response rating: Flood, 31 g ai/ha, scale 0 to 100 (0 no effect, 100 complete control)
Procedure, shortened: as §3

[12] = system: umbrella sedge (Cyperus difformis); assay: Test B flooded paddy test; details: for Plant response rating, Flood, Sedge, Umbrella: 250 g ai/ha, flooded paddy test, visual rating on 0 to 100 scale (0 no effect, 100 complete control) after 13 to 15 days; for Plant response rating, Sedge, Umbrella: Flood (flooded paddy test), 13 to 15 days; for Sedge, Umbrella plant response rating: Flood, 31 g ai/ha, scale 0 to 100 (0 no effect, 100 complete control)
Procedure, shortened: as §3

[13] = Postemergence, 125 g ai/ha, 0 to 100 scale where 0 is no effect and 100 is complete control
[14] = Postemergence, 500 g ai/ha, 0 to 100 scale, 0 = no effect, 100 = complete control, approx. ten days
[15] = Preemergence, 125 g ai/ha, 0 to 100 scale, 0 = no effect, 100 = complete control
[16] = Preemergence, 500 g ai/ha, visual injury, 0 to 100 scale (0 no effect, 100 complete control), approx. ten days
[17] = 62 g ai/ha, scale of 0 to 100 where 0 is no effect and 100 is complete control
[18] = 125 g ai/ha, scale 0 to 100, 0 is no effect, 100 is complete control

CCCc1ncc(C(=O)C2=C(O)CCCC2=O)c(=O)n1Cc1ccc(OC)c(OC)c1 [Compound 84]
Plant response rating, Barnyardgrass [1, 13]: 0 | Plant response rating, Barnyardgrass [1, 14]: 10 | Plant response rating, Barnyardgrass [1, 15]: 0 | Plant response rating, Barnyardgrass [1, 16]: 0 | Plant response rating, Corn [2, 13]: 0 | Plant response rating, Corn [2, 14]: 20 | Plant response rating, Corn [2, 15]: 0 | Plant response rating, Corn [2, 16]: 0 | Plant response rating, Foxtail, Giant [3, 13]: 0 | Plant response rating, Foxtail, Giant [3, 14]: 0 | Plant response rating, Foxtail, Giant [3, 15]: 0 | Plant response rating, Foxtail, Giant [3, 16]: 0 | Plant response rating, Crabgrass, Large [4, 13]: 0 | Plant response rating, Crabgrass, Large [4, 14]: 10 | Plant response rating, Crabgrass, Large [4, 15]: 0 | Plant response rating, Crabgrass, Large [4, 16]: 0 | Plant response rating, Morningglory [5, 13]: 90 | Plant response rating, Morningglory [5, 14]: 90 | Plant response rating, Morningglory [5, 15]: 0 | Plant response rating, Morningglory [5, 16]: 10 | Plant response rating, Pigweed [6, 13]: 100 | Plant response rating, Pigweed [6, 14]: 100 | Plant response rating, Pigweed [6, 15]: 90 | Plant response rating, Pigweed [6, 16]: 100 | Plant response rating, Velvetleaf [7, 13]: 70 | Plant response rating, Velvetleaf [7, 14]: 100 | Plant response rating, Velvetleaf [7, 15]: 0 | Plant response rating, Velvetleaf [7, 16]: 40 | Plant response rating, Wheat [8, 13]: 0 | Plant response rating, Wheat [8, 14]: 0 | Plant response rating, Wheat [8, 15]: 0 | Plant response rating, Wheat [8, 16]: 0 | Plant response rating, Flood, Barnyardgrass [9]: 0 | Plant response rating, Barnyardgrass [9, 17]: 0 | Plant response rating, Barnyardgrass [9, 18]: 0 | Barnyardgrass plant response rating [9]: 0 | Plant response rating, Flood, Ducksalad [10]: 20 | Plant response rating, Ducksalad [10, 17]: 0 | Plant response rating, Ducksalad [10, 18]: 0 | Ducksalad plant response rating [10]: 0 | Plant response rating, Flood, Rice [11]: 0 | Plant response rating, Rice [11, 17]: 0 | Plant response rating, Rice [11, 18]: 0 | Rice plant response rating [11]: 0 | Plant response rating, Flood, Sedge, Umbrella [12]: 50 | Plant response rating, Sedge, Umbrella [12, 17]: 0 | Plant response rating, Sedge, Umbrella [12, 18]: 30 | Sedge, Umbrella plant response rating [12]: 0

CCCc1ncc(C(=O)C2=C(O)CCCC2=O)c(=O)n1Cc1ccccc1 [Compound 103]
Plant response rating, Barnyardgrass [1, 13]: 30 | Plant response rating, Barnyardgrass [1, 14]: 60 | Plant response rating, Barnyardgrass [1, 15]: 0 | Plant response rating, Barnyardgrass [1, 16]: 20 | Plant response rating, Corn [2, 13]: 0 | Plant response rating, Corn [2, 14]: 20 | Plant response rating, Corn [2, 15]: 0 | Plant response rating, Corn [2, 16]: 0 | Plant response rating, Foxtail, Giant [3, 13]: 0 | Plant response rating, Foxtail, Giant [3, 14]: 20 | Plant response rating, Foxtail, Giant [3, 15]: 0 | Plant response rating, Foxtail, Giant [3, 16]: 60 | Plant response rating, Crabgrass, Large [4, 13]: 10 | Plant response rating, Crabgrass, Large [4, 14]: 40 | Plant response rating, Crabgrass, Large [4, 15]: 40 | Plant response rating, Crabgrass, Large [4, 16]: 80 | Plant response rating, Morningglory [5, 13]: 100 | Plant response rating, Morningglory [5, 14]: 100 | Plant response rating, Morningglory [5, 15]: 20 | Plant response rating, Morningglory [5, 16]: 60 | Plant response rating, Pigweed [6, 13]: 100 | Plant response rating, Pigweed [6, 14]: 100 | Plant response rating, Pigweed [6, 15]: 90 | Plant response rating, Pigweed [6, 16]: 100 | Plant response rating, Velvetleaf [7, 13]: 100 | Plant response rating, Velvetleaf [7, 14]: 100 | Plant response rating, Velvetleaf [7, 15]: 60 | Plant response rating, Velvetleaf [7, 16]: 90 | Plant response rating, Wheat [8, 13]: 0 | Plant response rating, Wheat [8, 14]: 0 | Plant response rating, Wheat [8, 15]: 0 | Plant response rating, Wheat [8, 16]: 0 | Plant response rating, Flood, Barnyardgrass [9]: 0 | Plant response rating, Barnyardgrass [9, 17]: 0 | Plant response rating, Barnyardgrass [9, 18]: 0 | Barnyardgrass plant response rating [9]: 0 | Plant response rating, Flood, Ducksalad [10]: 0 | Plant response rating, Ducksalad [10, 17]: 0 | Plant response rating, Ducksalad [10, 18]: 0 | Ducksalad plant response rating [10]: 0 | Plant response rating, Flood, Rice [11]: 0 | Plant response rating, Rice [11, 17]: 0 | Plant response rating, Rice [11, 18]: 0 | Rice plant response rating [11]: 0 | Plant response rating, Flood, Sedge, Umbrella [12]: 0 | Plant response rating, Sedge, Umbrella [12, 17]: 0 | Plant response rating, Sedge, Umbrella [12, 18]: 0 | Sedge, Umbrella plant response rating [12]: 0

CCCc1ncc(C(=O)C2=C(O)CCCC2=O)c(=O)n1Cc1cccc(OC)c1 [Compound 104]
Plant response rating, Barnyardgrass [1, 13]: 10 | Plant response rating, Barnyardgrass [1, 14]: 40 | Plant response rating, Barnyardgrass [1, 15]: 0 | Plant response rating, Barnyardgrass [1, 16]: 0 | Plant response rating, Corn [2, 13]: 0 | Plant response rating, Corn [2, 14]: 0 | Plant response rating, Corn [2, 15]: 0 | Plant response rating, Corn [2, 16]: 0 | Plant response rating, Foxtail, Giant [3, 13]: 0 | Plant response rating, Foxtail, Giant [3, 14]: 0 | Plant response rating, Foxtail, Giant [3, 15]: 0 | Plant response rating, Foxtail, Giant [3, 16]: 0 | Plant response rating, Crabgrass, Large [4, 13]: 0 | Plant response rating, Crabgrass, Large [4, 14]: 0 | Plant response rating, Crabgrass, Large [4, 15]: 0 | Plant response rating, Crabgrass, Large [4, 16]: 0 | Plant response rating, Morningglory [5, 13]: 70 | Plant response rating, Morningglory [5, 14]: 100 | Plant response rating, Morningglory [5, 15]: 0 | Plant response rating, Morningglory [5, 16]: 0 | Plant response rating, Pigweed [6, 13]: 100 | Plant response rating, Pigweed [6, 14]: 100 | Plant response rating, Pigweed [6, 15]: 80 | Plant response rating, Pigweed [6, 16]: 90 | Plant response rating, Velvetleaf [7, 13]: 70 | Plant response rating, Velvetleaf [7, 14]: 80 | Plant response rating, Velvetleaf [7, 15]: 0 | Plant response rating, Velvetleaf [7, 16]: 40 | Plant response rating, Wheat [8, 13]: 0 | Plant response rating, Wheat [8, 14]: 0 | Plant response rating, Wheat [8, 15]: 0 | Plant response rating, Wheat [8, 16]: 0 | Plant response rating, Flood, Barnyardgrass [9]: 0 | Plant response rating, Barnyardgrass [9, 17]: 0 | Plant response rating, Barnyardgrass [9, 18]: 0 | Barnyardgrass plant response rating [9]: 0 | Plant response rating, Flood, Ducksalad [10]: 0 | Plant response rating, Ducksalad [10, 17]: 0 | Plant response rating, Ducksalad [10, 18]: 0 | Ducksalad plant response rating [10]: 0 | Plant response rating, Flood, Rice [11]: 0 | Plant response rating, Rice [11, 17]: 0 | Plant response rating, Rice [11, 18]: 0 | Rice plant response rating [11]: 0 | Plant response rating, Flood, Sedge, Umbrella [12]: 0 | Plant response rating, Sedge, Umbrella [12, 17]: 0 | Plant response rating, Sedge, Umbrella [12, 18]: 0 | Sedge, Umbrella plant response rating [12]: 0

CCCc1ncc(C(=O)C2=C(O)CCCC2=O)c(=O)n1Cc1cccc(OC(F)(F)F)c1 [Compound 105]
Plant response rating, Barnyardgrass [1, 13]: 20 | Plant response rating, Barnyardgrass [1, 14]: 50 | Plant response rating, Barnyardgrass [1, 15]: 0 | Plant response rating, Barnyardgrass [1, 16]: 0 | Plant response rating, Corn [2, 13]: 0 | Plant response rating, Corn [2, 14]: 10 | Plant response rating, Corn [2, 15]: 0 | Plant response rating, Corn [2, 16]: 0 | Plant response rating, Foxtail, Giant [3, 13]: 0 | Plant response rating, Foxtail, Giant [3, 14]: 20 | Plant response rating, Foxtail, Giant [3, 15]: 30 | Plant response rating, Foxtail, Giant [3, 16]: 50 | Plant response rating, Crabgrass, Large [4, 13]: 20 | Plant response rating, Crabgrass, Large [4, 14]: 70 | Plant response rating, Crabgrass, Large [4, 15]: 30 | Plant response rating, Crabgrass, Large [4, 16]: 50 | Plant response rating, Morningglory [5, 13]: 10 | Plant response rating, Morningglory [5, 14]: 80 | Plant response rating, Morningglory [5, 15]: 0 | Plant response rating, Pigweed [6, 13]: 90 | Plant response rating, Pigweed [6, 14]: 100 | Plant response rating, Pigweed [6, 15]: 80 | Plant response rating, Pigweed [6, 16]: 90 | Plant response rating, Velvetleaf [7, 13]: 100 | Plant response rating, Velvetleaf [7, 14]: 100 | Plant response rating, Velvetleaf [7, 15]: 0 | Plant response rating, Velvetleaf [7, 16]: 70 | Plant response rating, Wheat [8, 13]: 0 | Plant response rating, Wheat [8, 14]: 0 | Plant response rating, Wheat [8, 15]: 0 | Plant response rating, Wheat [8, 16]: 0 | Plant response rating, Flood, Barnyardgrass [9]: 0 | Plant response rating, Barnyardgrass [9, 17]: 0 | Plant response rating, Barnyardgrass [9, 18]: 0 | Barnyardgrass plant response rating [9]: 0 | Plant response rating, Flood, Ducksalad [10]: 0 | Plant response rating, Ducksalad [10, 17]: 0 | Plant response rating, Ducksalad [10, 18]: 0 | Ducksalad plant response rating [10]: 0 | Plant response rating, Flood, Rice [11]: 0 | Plant response rating, Rice [11, 17]: 0 | Plant response rating, Rice [11, 18]: 0 | Rice plant response rating [11]: 0 | Plant response rating, Flood, Sedge, Umbrella [12]: 0 | Plant response rating, Sedge, Umbrella [12, 17]: 0 | Plant response rating, Sedge, Umbrella [12, 18]: 0 | Sedge, Umbrella plant response rating [12]: 0
